Test results: paper PMC4594923, “Food Polyphenols Fail to Cause a Biologically Relevant Reduction of COX-2 Activity” (PLoS ONE, 2015)
Marks after values point to notes of the source that are not given here.

Experiments:
[1] = tested on: arachidonic acid (AA) cascade; test: plasma oxylipin/PG levels in LPS induced sepsis in mice; format: in vivo, C57BL/6N mice;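 further: male C57BL/6N mice given LPS, plasma oxylipins quantified by LC-MS after solid-phase extraction, pretreatment or vehicle given intraperitoneally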
[2] = tested on: arachidonic acid (AA) cascade; test: kidney tissue oxylipin/PG levels in LPS induced sepsis in mice;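 further: male C57BL/6N mice challenged with LPS, kidney taken 24 h later, oxylipins quantified by LC-MS after solid-phase extraction of tissue homogenate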
Text: Twelve week old male C57BL/6N mice (Charles River, Sulzfeld, Germany) were used for all experiments. C57BL/6 male mice (H2^b, 11–13 weeks of age) were obtained from Charles River (Sulzfeld, Germany). Animals were cared for in accordance with the institution’s guidelines for experimental animals and with the guidelines of the American Physiological Society. […] Mice were monitored closely and if they appeared compromised (i.e. inactivity, no intake of food or water) after compound or LPS injection the experiment was terminated.
Oxylipin levels were analyzed in plasma and tissues by LC-MS following SPE extraction of 200 μl plasma or tissue homogenate (50 mg) on Chromabond C18 ec cartridges (Machery-Nagel, Düren, Germany) [19].
GraphPad Prism 5.0 (GraphPad Software, San Diego, USA) was used for data analysis, the fitting of dose response curves and calculation of the IC50 values. Statistical differences were determined by Dunnetts test (LPS vs. other groups).

[3] = mice, compound i. p. 100 mg/kg bw 2 h before LPS (10 mg/kg bw i. p.), 24 h after LPS, vs. LPS group
[4] = plasma 24 h after LPS treatment, LPS +, mean
[5] = kidney tissue 24 h after LPS treatment, LPS +, mean
[6] = kidney tissue 24 h after LPS treatment, LPS +, mean, < = below LOQ
[7] = mice, compound i. p. 100 mg/kg bw 2 h before LPS, 24 h after LPS, vs. LPS group

SMILES: Oc1ccc(/C=C/c2cc(O)cc3c2[C@@H](c2cc(O)cc(O)c2)[C@H](c2ccc(O)cc2)O3)cc1 [ε-Viniferin, ε-viniferin]
- plasma 8-iPF2α level (non-enzymatically formed autoxidation marker) [1, 3]: high levels
- plasma 13,14-dihydro-15-keto-PGE1 level [1, 3]: high levels
- plasma 13,14-dihydro-15-keto-PGF2α level [1, 3]: high levels
- plasma PGF2α level [1, 3]: high levels
- 1a,1b-dihomo-PGF2α concentration in plasma [1, 4]: 0.42^† nM
- 4,5-DiHDPE concentration in plasma [1, 4]: 23^‡ nM
- 4-HDHA concentration in plasma [1, 4]: 1.7 nM
- 5(6)-EpETrE concentration in plasma [1, 4]: 11 nM
- 5,6-DiHETrE concentration in plasma [1, 4]: 1.3^‡ nM
- 5-HEPE concentration in plasma [1, 4]: 0.25^* nM
- 5-HETE concentration in plasma [1, 4]: 2.8 nM
- 5-iPF2α concentration in plasma [1, 4]: 0.91^‡ nM
- 5-oxo-ETE concentration in plasma [1, 4]: 4.7 nM
- 6-keto-PGF1α concentration in plasma [1, 4]: 2.8 nM
- 7,8-DiHDPE concentration in plasma [1, 4]: 1.1 nM
- 7-HDHA concentration in plasma [1, 4]: 0.55 nM
- 8(9)-EpETrE concentration in plasma [1, 4]: 2.5 nM
- 8,9-DiHETrE concentration in plasma [1, 4]: 2.5 nM
- 8-HDHA concentration in plasma [1, 4]: 3.8 nM
- 8-HEPE concentration in plasma [1, 4]: 1.2^† nM
- 8-HETE concentration in plasma [1, 4]: 12^* nM
- 8-iPF2a concentration in plasma [1, 4]: 0.30^* nM
- 9(10)-EpODE concentration in plasma [1, 4]: 6.5 nM
- 9(10)-EpOME concentration in plasma [1, 4]: 61 nM
- 9(10)-Epoxystearic acid concentration in plasma [1, 4]: 37 nM
- 9,10,13-TriHOME concentration in plasma [1, 4]: 2.2 nM
- 9,10-DiHODE concentration in plasma [1, 4]: 4.5 nM
- 9,10-DiHOME concentration in plasma [1, 4]: 30 nM
- 9,10-Dihydroxystearic acid concentration in plasma [1, 4]: 10 nM
- 9,12,13-TriHOME concentration in plasma [1, 4]: 17 nM
- 9-HODE concentration in plasma [1, 4]: 210 nM
- 9-HOTrE concentration in plasma [1, 4]: 12 nM
- 9-oxo-ODE concentration in plasma [1, 4]: 38 nM
- 10(11)-EpDPE concentration in plasma [1, 4]: 3.9 nM
- 10,11-DiHDPE concentration in plasma [1, 4]: 0.62^* nM
- 10-HDHA concentration in plasma [1, 4]: 27^† nM
- 11(12)-EpETrE concentration in plasma [1, 4]: 2.6 nM
- 11,12-DiHETE concentration in plasma [1, 4]: 0.38^‡ nM
- 11,12-DiHETrE concentration in plasma [1, 4]: 2.0 nM
- 11-HDHA concentration in plasma [1, 4]: 0.91 nM
- 11-HETE concentration in plasma [1, 4]: 3.8^* nM
- 12(13)-EpODE concentration in plasma [1, 4]: 3.3 nM
- 12(13)-EpOME concentration in plasma [1, 4]: 48 nM
- 12,13-DiHODE concentration in plasma [1, 4]: 2.8 nM
- 12,13-DiHOME concentration in plasma [1, 4]: 110^* nM
- 12-HEPE concentration in plasma [1, 4]: 239^† nM
- 12-HETE concentration in plasma [1, 4]: 1700^† nM
- 13(14)-EpDPE concentration in plasma [1, 4]: 2.9 nM
- 13,14-DiHDPE concentration in plasma [1, 4]: 0.55^* nM
- 13,14-dihydro-15-keto-PGE1 concentration in plasma [1, 4]: 0.34^† nM
- 13,14dihydro-15-keto-PGF2α concentration in plasma [1, 4]: 2.1^‡ nM
- 13-HDHA concentration in plasma [1, 4]: 3.9^* nM
- 13-HODE concentration in plasma [1, 4]: 540 nM
- 13-HOTrE concentration in plasma [1, 4]: 61 nM
- 13-oxo-ODE concentration in plasma [1, 4]: 8.3 nM
- 14(15)-EpETE concentration in plasma [1, 4]: 0.18^* nM
- 14(15)-EpETrE concentration in plasma [1, 4]: 2.4 nM
- 14,15-DiHETE concentration in plasma [1, 4]: 0.36 nM
- 14,15-DiHETrE concentration in plasma [1, 4]: 2.5 nM
- 14-HDHA concentration in plasma [1, 4]: 800^† nM
- 15(16)-EpODE concentration in plasma [1, 4]: 2.9 nM
- 15(S)-HETrE concentration in plasma [1, 4]: 5.7^‡ nM
- 15,16-DiHODE concentration in plasma [1, 4]: 53 nM
- 15-HEPE concentration in plasma [1, 4]: 1.5^‡ nM
- 15-HETE concentration in plasma [1, 4]: 7.9^† nM
- 15-oxo-ETE concentration in plasma [1, 4]: 0.34 nM
- 16(17)-EpDPE concentration in plasma [1, 4]: 2.8 nM
- 16,17-DiHDPE concentration in plasma [1, 4]: 1.1^† nM
- 16-HDHA concentration in plasma [1, 4]: 1.1 nM
- 17(18)-EpETE concentration in plasma [1, 4]: 1.1 nM
- 17,18-DiHETE concentration in plasma [1, 4]: 1.8 nM
- 17-HDHA concentration in plasma [1, 4]: 39^† nM
- 18-HEPE concentration in plasma [1, 4]: 0.81 nM
- 19(20)-EpDPE concentration in plasma [1, 4]: 13 nM
- 19,20-DiHDPE concentration in plasma [1, 4]: 14 nM
- 20-HDHA concentration in plasma [1, 4]: 3.6 nM
- 20-HEPE concentration in plasma [1, 4]: 5.7^† nM
- 20-HETE concentration in plasma [1, 4]: 2.7^‡ nM
- EKODE concentration in plasma [1, 4]: 16 nM
- PGD2 concentration in plasma [1, 4]: 0.90 nM
- PGE2 concentration in plasma [1, 4]: 1.6 nM
- PGF1α concentration in plasma [1, 4]: 0.25^‡ nM
- PGF2α concentration in plasma [1, 4]: 0.77^‡ nM
- TXB2 concentration in plasma [1, 4]: 4.2 nM
- 1a,1b-dihomo-PGF2α [2, 5]: 3.2^† nM
- 4,5-DiHDPE [2, 5]: 26^‡ nM
- 4-HDHA [2, 5]: 22 nM
- 5(6)-EpETrE [2, 5]: 70 nM
- 5,6-DiHETrE [2, 5]: 2.2^‡ nM
- 5-HEPE [2, 5]: 1.1 nM
- 5-HETE [2, 5]: 13 nM
- 5-oxo-ETE [2, 5]: 24 nM
- 6-keto-PGF1α [2, 5]: 108^‡ nM
- 7,8-DiHDPE [2, 5]: 1.9 nM
- 7-HDHA [2, 5]: 2.7 nM
- 8(9)-EpETrE [2, 5]: 15 nM
- 8,9-DiHETrE [2, 5]: 2.2^* nM
- 8-HDHA [2, 5]: 18^* nM
- 8-HETE [2, 5]: 4.4 nM
- 8-iPF2a [2, 5]: 2.7^† nM
- 9(10)-EpODE [2, 5]: 9.9 nM
- 9(10)-EpOME [2, 5]: 110 nM
- 9(10)-Epoxystearic acid [2, 5]: 64 nM
- 9,10,13-TriHOME [2, 5]: 10 nM
- 9,10-DiHODE [2, 5]: 2.0 nM
- 9,10-DiHOME [2, 5]: 27 nM
- 9,10-Dihydroxystearic acid [2, 5]: 87 nM
- 9,12,13-TriHOME [2, 5]: 69^‡ nM
- 9-HETE [2, 5]: 3.6 nM
- 9-HODE [2, 5]: 380^† nM
- 9-HOTrE [2, 5]: 5.8 nM
- 9-oxo-ODE [2, 5]: 73 nM
- 10(11)-EpDPE [2, 5]: 27 nM
- 10,11-DiHDPE [2, 5]: 2.3 nM
- 10-HDHA [2, 5]: 3.6 nM
- 11(12)-EpETE [2, 5]: 1.4 nM
- 11(12)-EpETrE [2, 5]: 35 nM
- 11,12-DiHETrE [2, 5]: 1.8^‡ nM
- 11-HDHA [2, 5]: 5.4 nM
- 11-HETE [2, 5]: 22^† nM
- 12(13)-EpODE [2, 5]: 4.3 nM
- 12(13)-EpOME [2, 5]: 80 nM
- 12,13-DiHOME [2, 5]: 32^† nM
- 12-HEPE [2, 5]: 5.0 nM
- 12-HETE [2, 5]: 47 nM
- 13(14)-EpDPE [2, 5]: 22 nM
- 13,14-DiHDPE [2, 5]: 1.4 nM
- 13,14-dihydro-15-keto-PGF2α [2, 5]: 4.6^‡ nM
- 13-HDHA [2, 5]: 7.7 nM
- 13-HODE [2, 5]: 310^† nM
- 13-HOTrE [2, 5]: 6.0 nM
- 13-oxo-ODE [2, 5]: 8.3 nM
- 14(15)-EpETE [2, 5]: 1.7 nM
- 14(15)-EpETrE [2, 5]: 29 nM
- 14,15-DiHETE [2, 5]: 0.38^‡ nM
- 14,15-DiHETrE [2, 5]: 3.4^‡ nM
- 14-HDHA [2, 5]: 20 nM
- 15(16)-EpODE [2, 5]: 22 nM
- 15(S)-HETrE [2, 5]: 8.0^‡ nM
- 15,16-DiHODE [2, 5]: 22 nM
- 15-HETE [2, 5]: 30^* nM
- 15-oxo-ETE [2, 5]: 9.3 nM
- 16(17)-EpDPE [2, 5]: 21 nM
- 16,17-DiHDPE [2, 5]: 2.7^‡ nM
- 16-HDHA [2, 5]: 4.9^* nM
- 17(18)-EpETE [2, 5]: 2.4 nM
- 17,18-DiHETE [2, 5]: 1.8^‡ nM
- 17-HDHA [2, 5]: 15 nM
- 18-HEPE [2, 5]: 1.5 nM
- 19(20)-EpDPE [2, 5]: 36 nM
- 19,20-DiHDPE [2, 5]: 31^‡ nM
- 20-HDHA [2, 5]: 17 nM
- 20-HEPE [2, 5]: 11 nM
- EKODE [2, 5]: 92^‡ nM
- PGD2 [2, 5]: 19^† nM
- PGE1 [2, 5]: 8.3 nM
- PGE2 [2, 5]: 110 nM
- PGF1α [2, 5]: 7.7^‡ nM
- PGF2α [2, 5]: 63^‡ nM
- TXB2 [2, 5]: 4.9^‡ nM
- 5,6-DiHETE [2, 6]: < 0.25 nM
- 5-iPF2α [2, 6]: 1.5^‡ nM
- 8(9)-EpETE [2, 6]: 1.2 nM
- 12,13-DiHODE [2, 6]: < 2.0 nM
- 13,14-dihydro-15-keto-PGE1 [2, 6]: 0.49 nM
- 20-HETE [2, 6]: 3.6^* nM
- PGD1 [2, 6]: 0.84^† nM
- PGF2α ([2]; kidney tissue 24 h after LPS treatment, LPS +, mean, second listing of PGF2α (r9)): 63 nM
- kidney 6-keto-PGF1α level [2, 7]: elevated
- kidney 8-iPGF2α level [2, 7]: elevated
- kidney 13,14-dihydro-15-keto-PGE1 level [2, 7]: elevated
